# Assay results taken from US9493775B2, “Inhibition of the glycine cleavage system for treatment of cancer” (Whitehead Institute for Biomedical Research, priority 2012, dated 2016).
# Experiments:
# [1] = target: T protein (Homo sapiens, UniProt P48728); details: cited from earlier work
# [2] = target: T1, glycine cleavage system (GCS) (Homo sapiens, UniProt P23378); details: cited from earlier work
# T1 sequence (P23378 36-1020): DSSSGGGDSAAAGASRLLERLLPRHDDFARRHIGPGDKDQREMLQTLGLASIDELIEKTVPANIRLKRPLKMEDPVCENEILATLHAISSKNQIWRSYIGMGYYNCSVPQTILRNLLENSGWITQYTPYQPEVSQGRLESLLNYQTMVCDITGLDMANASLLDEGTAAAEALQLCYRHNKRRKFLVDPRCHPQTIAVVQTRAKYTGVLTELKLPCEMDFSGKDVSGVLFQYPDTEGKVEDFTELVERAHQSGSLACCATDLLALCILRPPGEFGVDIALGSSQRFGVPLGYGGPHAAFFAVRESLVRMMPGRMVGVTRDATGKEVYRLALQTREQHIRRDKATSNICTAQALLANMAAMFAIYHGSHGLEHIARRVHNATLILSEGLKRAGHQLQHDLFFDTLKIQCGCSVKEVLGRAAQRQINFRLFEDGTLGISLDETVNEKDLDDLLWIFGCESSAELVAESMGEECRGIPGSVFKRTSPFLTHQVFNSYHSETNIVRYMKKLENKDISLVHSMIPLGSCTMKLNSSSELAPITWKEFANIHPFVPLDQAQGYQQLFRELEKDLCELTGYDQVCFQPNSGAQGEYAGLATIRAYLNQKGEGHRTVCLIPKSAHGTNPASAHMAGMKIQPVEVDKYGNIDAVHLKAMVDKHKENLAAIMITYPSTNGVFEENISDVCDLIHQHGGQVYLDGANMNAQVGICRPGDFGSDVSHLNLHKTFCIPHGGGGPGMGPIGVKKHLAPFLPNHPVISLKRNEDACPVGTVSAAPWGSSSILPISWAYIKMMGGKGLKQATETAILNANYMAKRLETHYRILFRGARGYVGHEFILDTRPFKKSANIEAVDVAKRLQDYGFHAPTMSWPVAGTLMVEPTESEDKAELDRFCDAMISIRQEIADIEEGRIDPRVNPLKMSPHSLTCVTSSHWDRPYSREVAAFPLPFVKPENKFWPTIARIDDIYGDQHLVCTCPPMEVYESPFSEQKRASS
# [3] = system: P protein; details: cited from earlier work
# [4] = system: GLDC-knockdown-sensitive cells; assay: Cysteamine treatment, cell viability by ATP assay; format: cell-based; details: 1 mM, 4 days
# Description: FIGS. 3A-3C. GLDC shRNA sensitive lines, but not insensitive lines, are also sensitive to pharmacological inhibition of the GCS, and to shRNA knockdown of another GCS component (GCSH). (A) Various cell lines were treated with 1 mM cysteamine for 4 days. […] (C) Various cells lines were infected with GS1, GS2, GS3, or GS4 shRNAs for 6 days. Cell viability was measured and data from multiple experiments is shown ±S.D. The blue line indicates cell viability for each cell line when infected with control (GFP) shRNA, which was set as 100%. Thus, data for each cell line is shown as a % relative to viability when infected with shGFP. For (A) and (C), asterisk indicates a statistically significant decrease in cell viability following cysteamine treatment relative to untreated (p<0.05). Red font indicates GLDC shRNA-sensitive lines, and blue font indicates insensitive lines.
# We assessed the effect of treatment with cysteamine, an inhibitor of the GCS (9) on a number of the tumor cell lines that had been examined in the experiments described in Example 3. Cells were treated with cysteamine (1 mM) for 4 days, and cell viability was then assessed using an ATP assay.
# [5] = system: glycine cleavage activity in the liver; details: administration to rats; cited from earlier work
# [6] = patients with NKH; cited from earlier work
# Chain of T protein (P48728 29-403): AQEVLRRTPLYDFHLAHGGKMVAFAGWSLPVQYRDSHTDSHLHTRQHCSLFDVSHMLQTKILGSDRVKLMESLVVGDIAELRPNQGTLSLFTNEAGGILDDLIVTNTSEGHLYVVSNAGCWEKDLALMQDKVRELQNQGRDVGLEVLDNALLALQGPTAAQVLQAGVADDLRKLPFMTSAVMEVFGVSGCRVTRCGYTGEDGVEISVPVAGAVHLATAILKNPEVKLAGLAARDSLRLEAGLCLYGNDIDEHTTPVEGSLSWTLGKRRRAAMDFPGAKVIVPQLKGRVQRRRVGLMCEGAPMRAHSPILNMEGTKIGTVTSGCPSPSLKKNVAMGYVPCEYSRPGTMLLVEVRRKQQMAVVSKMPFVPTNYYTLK
compound,measurement,setting,value
CN1c2c(nc(N)[nH]c2=O)NCC1CNc1ccc(C(=O)N[C@@H](CCC(=O)O)C(=O)O)cc1 (stereo partly drawn) [5-methyltetrahydrofolate],inhibition of T protein,[1],inhibits T protein
N#CCN [aminoacetonitrile],inhibition of the GCS,[2],reported to inhibit the GCS
NOCC(=O)O [carboxymethoxylamine],inhibition of P protein,[3],reported to inhibit P protein
"NCCS [cysteamine, 2-aminoethanethiol]",cell viability (ATP assay),[4],impaired viability
same,inhibition of the GCS,[2],known inhibitor of the GCS
"C#CCN [propargylamine, 3-Amino-1-propyne]",inhibition of the GCS,[2],reported to inhibit the GCS
"CCCC(CCC)C(=O)O [valproic acid, 2-propylpentanoic acid]",glycine cleavage activity in the liver,[5],inhibit glycine cleavage activity in the liver
same,P protein activity in vitro,[3]; in vitro,reduced
same,seizure frequency,[6],increase in seizure frequency
